Measurements from publication PMC4551797 (PLoS ONE, 2015).
Read-outs that look alike come from different tables or passages of the source.

Assays:
[1] = target: GPR40 (Homo sapiens, UniProt O14842); experiment: Selectivity: enteroendocrine GPCR GPR40
[2] = target: T1, FXR (Homo sapiens, UniProt Q96RI1); experiment: Selectivity: nuclear hormone receptor FXR
T1 sequence (Q96RI1 1-486): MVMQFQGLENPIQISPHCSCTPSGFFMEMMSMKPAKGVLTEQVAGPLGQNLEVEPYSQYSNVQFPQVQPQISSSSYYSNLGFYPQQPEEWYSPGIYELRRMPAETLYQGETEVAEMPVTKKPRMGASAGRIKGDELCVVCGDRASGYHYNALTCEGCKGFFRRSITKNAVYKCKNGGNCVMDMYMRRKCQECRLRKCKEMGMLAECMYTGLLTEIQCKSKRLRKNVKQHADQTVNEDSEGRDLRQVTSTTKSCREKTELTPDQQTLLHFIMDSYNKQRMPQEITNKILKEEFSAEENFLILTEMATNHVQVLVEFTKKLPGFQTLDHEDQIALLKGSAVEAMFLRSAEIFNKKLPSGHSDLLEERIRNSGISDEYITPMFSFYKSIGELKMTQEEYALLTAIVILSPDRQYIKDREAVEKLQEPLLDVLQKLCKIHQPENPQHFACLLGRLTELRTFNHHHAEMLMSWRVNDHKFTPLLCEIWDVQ

[3] = test system: C57BL/6 mice; experiment: Oral glucose tolerance test with hormone measurement; format: in vivo, mouse; details: 30 mg/kg oral, glucose 3 g/kg
Experimental: For measurement of glucose only, overnight-fasted C57BL/6 mice in a normal light cycle were orally dosed with vehicle or compound, followed by an oral bolus of 3 g/kg glucose at 15 minutes post compound. At 0, 20, 40, 60, and 120 minutes post glucose dose, blood glucose was assessed via glucometers. Resulting raw data was used to generate AUCs. For measurement of hormones and glucose, overnight-fasted C57BL/6 mice acclimated for two weeks to a reverse light cycle were orally dosed with vehicle or compound, followed by an oral bolus of 3 g/kg glucose at 15 minutes post compound. At 0, 2, 5, 10, 20, 40, and 60 minutes post glucose dose, blood glucose was assessed via glucometers, followed immediately by collection of plasma for active GLP-1 (Mesoscale Discovery), insulin (Mesoscale Discovery), and total PYY. Glucose tolerance tests in diet-induced obese (DIO) C57BL/6 mice were performed in overnight-fasted animals dosed either acutely or after 2-week administration with vehicle or compound 18 at 60 mg/kg, followed 30 minutes post compound by an oral bolus of 2 g/kg glucose. At 0, 15, 30, 60, and 120 minutes post glucose dose, blood glucose was assessed via glucometers. Resulting raw data was used to generate AUCs.
To evaluate glucose, insulin, GLP-1, and PYY levels throughout the OGTT, each time-point consisted of a separate group of mice that were used to record glucose by use of a glucometer followed by terminal bleeds for measurement of active GLP-1, total PYY, and insulin. AUCs were then calculated for the entire hour of the OGTT. […] Changes in insulin AUCs were not increased with treatment of either sitagliptin or compound 18, likely due to the lower glucose levels reducing the drive for glucose-stimulated insulin secretion (Fig 5D).
Fig 5 Compound 18 increases GLP-1 and PYY and lowers the glucose and insulin excursions as compared to sitagliptin in an OGTT in C57BL/6 mice. […] Plasma was analyzed for active GLP-1 (A), total PYY (B), and insulin (D), while blood glucose was measured by glucometers (C).

[4] = test system: DIO C57BL/6 mice; experiment: Oral glucose tolerance test in diet-induced obese mice, acute or after 2-week dosing; format: in vivo, mouse; details: 2 g/kg glucose
Experimental: For measurement of glucose only, overnight-fasted C57BL/6 mice in a normal light cycle were orally dosed with vehicle or compound, followed by an oral bolus of 3 g/kg glucose at 15 minutes post compound. At 0, 20, 40, 60, and 120 minutes post glucose dose, blood glucose was assessed via glucometers. Resulting raw data was used to generate AUCs. For measurement of hormones and glucose, overnight-fasted C57BL/6 mice acclimated for two weeks to a reverse light cycle were orally dosed with vehicle or compound, followed by an oral bolus of 3 g/kg glucose at 15 minutes post compound. At 0, 2, 5, 10, 20, 40, and 60 minutes post glucose dose, blood glucose was assessed via glucometers, followed immediately by collection of plasma for active GLP-1 (Mesoscale Discovery), insulin (Mesoscale Discovery), and total PYY. […] At 0, 15, 30, 60, and 120 minutes post glucose dose, blood glucose was assessed via glucometers. […]
While compound 18 led to significant glucose lowering in an OGTT studies when dosed acutely, it remained unclear if the mechanism of TGR5-stimulated GLP-1 secretion desensitizes over time. […] For the chronic study, DIO mice were orally dosed with vehicle or 60 mg/kg compound 18 once a day for two weeks; body weights and food intake were measured during the treatment period. […]

[5] = target: T2, mouse TGR5 (Mus musculus, UniProt Q80SS6); experiment: cAMP production in STC-1 enteroendocrine cells (endogenous TGR5); format: cell-based; parameters: in cells with endogenous levels of receptor; host or cells: STC-1 (mouse enteroendocrine); details: for EC50: STC-1 cells
T2 sequence (Q80SS6 1-329): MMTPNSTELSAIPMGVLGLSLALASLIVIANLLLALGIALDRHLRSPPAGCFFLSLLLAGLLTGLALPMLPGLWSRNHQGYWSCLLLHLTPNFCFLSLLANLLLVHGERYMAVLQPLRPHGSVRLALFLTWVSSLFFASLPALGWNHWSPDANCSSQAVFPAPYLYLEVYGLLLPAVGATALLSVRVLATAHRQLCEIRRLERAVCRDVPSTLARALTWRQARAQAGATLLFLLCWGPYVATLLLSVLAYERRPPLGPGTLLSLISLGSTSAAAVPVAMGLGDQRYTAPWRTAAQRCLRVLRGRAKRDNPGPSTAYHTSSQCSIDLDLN
Experimental: Both were maintained in Dulbecco’s modified Eagle’s medium (DMEM) containing 10% fetal bovine serum (FBS) and penicillin /streptomycin. Mouse STC-1 cells were obtained from ATCC under agreement with the Cold Spring Harbor Laboratories and maintained in DMEM containing 10% FBS and penicillin /streptomycin. […] NCI-H716 cells were cultured in 96 well plate coated with Matrigel (BD). After 72 hours, cAMP production stimulated with TGR5 agonists was measured using HTRF cAMP assay kit (CISBIO). The level of cAMP in suspensions of STC-1 cells stimulated with increasing concentrations of TGR5 agonists was also determined. After 2 day-culturing, GLP-1 secretion in Matrigel-differentiated NCI-H716 or STC-1 cells was induced by increasing concentrations of TGR5 agonists. The production of GLP-1 was determined using a GLP-1 Assay (7–36) amide kit (Mesoscale Discovery) following the manufacturer’s instructions. For both cAMP and GLP-1, the maximal response for each compound was set to 100% in each cell line.

Chain of GPR40 (O14842 whole entry, species assumed): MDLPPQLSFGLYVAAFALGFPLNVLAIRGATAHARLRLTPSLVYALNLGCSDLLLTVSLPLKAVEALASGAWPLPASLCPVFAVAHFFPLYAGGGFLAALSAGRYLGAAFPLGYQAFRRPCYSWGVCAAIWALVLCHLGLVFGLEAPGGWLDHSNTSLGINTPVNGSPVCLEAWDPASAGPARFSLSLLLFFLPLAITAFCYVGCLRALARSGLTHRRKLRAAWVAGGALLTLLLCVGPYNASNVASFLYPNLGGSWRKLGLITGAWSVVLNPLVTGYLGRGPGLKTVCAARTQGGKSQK

CC(=O)N1CCC(C(C)N(C(=O)COc2cccc3sc4nc(C)cn4c23)c2ccc(F)cc2)CC1 (centres unmarked) [compound 18]
EC50 [1]: > 125000 nM | EC50 [2]: > 125000 nM | AUC of active GLP-1 during OGTT ([3]; 1 hour): superior AUC for active GLP-1 above both vehicle and sitagliptin | AUC of total PYY during OGTT ([3]; 1 hour): higher increase in the AUC of total PYY above both vehicle and sitagliptin | insulin AUC during OGTT ([3]; 1 hour): not increased | glucose excursion during OGTT ([3]; versus sitagliptin 10 mg/kg): levels indistinguishable from those of sitagliptin-treated animals | reduction in the glucose excursion (OGTT) ([4]; acute, single 60 mg/kg oral dose): 33 ± 5% | reduction in the glucose excursion (OGTT) ([4]; chronic, 60 mg/kg oral once a day for two weeks): 27 ± 6% | EC50 ([5]; read-out: EC50, cAMP production): 580 nM | EC50 ([5]; unit inferred, x-axis in nM, read-out: EC50 STC-1 (Fig 2C inset, cAMP)): 580 nM | potency on the mouse versus the human TGR5 receptor ([5]; STC-1 versus NCI-H716 cells): more than 5 fold
